Results reported in patent US8476284B2, “Inhibitors of Bruton's tyrosine kinase” (Pharmacyclics, Inc., priority 2006, dated 2013).

Columns and labels:
Btk = Btk (Homo sapiens (Human), UniProt Q06187); experiment: Btk acellular kinase assay (TR-FRET)
DHL-6 cells = experiment: DHL-6 cell growth (Alamar Blue assay); assay type: cell-based; details: 3E4 cells/well, complete media

Sequence of Btk (Q06187 whole entry): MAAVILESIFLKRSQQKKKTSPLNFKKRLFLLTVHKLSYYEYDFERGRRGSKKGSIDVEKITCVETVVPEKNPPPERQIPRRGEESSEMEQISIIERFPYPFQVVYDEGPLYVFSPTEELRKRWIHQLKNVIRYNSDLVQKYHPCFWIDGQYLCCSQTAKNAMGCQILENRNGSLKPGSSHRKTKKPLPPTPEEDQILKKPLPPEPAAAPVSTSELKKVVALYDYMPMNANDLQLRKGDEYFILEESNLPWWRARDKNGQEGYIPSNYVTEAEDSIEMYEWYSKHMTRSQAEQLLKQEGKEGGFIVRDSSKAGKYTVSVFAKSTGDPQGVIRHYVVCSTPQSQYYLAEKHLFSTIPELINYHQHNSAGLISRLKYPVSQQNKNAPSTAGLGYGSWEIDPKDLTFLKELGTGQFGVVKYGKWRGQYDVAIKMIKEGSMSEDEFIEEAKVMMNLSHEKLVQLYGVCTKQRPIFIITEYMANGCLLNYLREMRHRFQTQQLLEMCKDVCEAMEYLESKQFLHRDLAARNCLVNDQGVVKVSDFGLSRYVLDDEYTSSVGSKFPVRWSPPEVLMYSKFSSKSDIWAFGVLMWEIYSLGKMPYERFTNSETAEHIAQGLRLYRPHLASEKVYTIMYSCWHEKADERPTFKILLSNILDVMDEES

Row | fold less potent than 4 (Btk) [fold] | SMILES | growth of DHL-6 cells (DHL-6 cells)
1 | 28 | C/C=C/C(=O)N1CCCC(n2nc(-c3ccc(Oc4ccccc4)cc3)c3c(N)ncnc32)C1 (centres unmarked) [Compound 5, (E)-1-(3-(4-amino-3-(4-phenoxyphenyl)-1H-pyrazolo[3,4-d]pyrimidin-1-yl)piperidin-1-yl)but-2-en-1-one] | –
2 | – | CN(C)C/C=C/C(=O)N1CCCC(n2nc(-c3ccc(Oc4ccccc4)cc3)c3c(N)ncnc32)C1 (centres unmarked) [Compound 15, (E)-1-(3-(4-amino-3-(4-phenoxyphenyl)-1H-pyrazolo[3,4-d]pyrimidin-1-yl)piperidin-1-yl)-4-(dimethylamino)but-2-en-1-one] | inhibit growth
